From patent US20240180803A1, “HYALURONIC ACID-PRODUCTION PROMOTER” (NISSIN FOODS HOLDINGS CO., LTD., priority 2021, published 2024)

Test system: normal human dermal fibroblasts (NHDF)
Assay: Production capacity evaluation test of hyaluronic acid in cultured cells
Type: cell-based
Details: for Amount of hyaluronic acid produced obtained by subtracting NC / Measured value (amount of hyaluronic acid in the culture supernatant): NHDF culture supernatant; for Measured value (amount of hyaluronic acid in the culture supernatant): NC 942; for production capacity of hyaluronic acid with the NC taken as 100%: NHDF, 24 hours, culture supernatant
Protocol: Reagents were first prepared. […] Next, preparation of cultured cells was performed. In Example, the preparation was performed with normal human dermal fibroblasts (NHDF). First, using Dulbecco's Modified Eagle Medium (DMEM, manufactured by Gibco) to which 10% heat-inactivated FBS (manufactured by Biowest) and penicillin-streptomycin (manufactured by Invitrogen) were added, NHDF was cultured under the conditions of 37° C., 5% CO2. NHDF cells were then seeded to a 24-well plate at 1.0×10^5 cells/well. Thereafter, the NHDF cells were cultured for 72 hours under the conditions mentioned above. After the cell culture, the culture supernatant was replaced with DMEM containing no FBS. […] Note that in cultured cells, the concentration is not related to an absorption rate, which is applied to oral intake. […] After the addition of the reagent or reagents, the cells were cultured for 24 hours under the conditions of 37° C., 5% CO2. The medium was recovered after culturing, and the concentration of the hyaluronic acid in the culture supernatant was measured using Hyaluronan DuoSet Kit (manufactured by R&D Systems). Note that the cell culture without reagent was set as a negative control (NC) in Example. […] Here, the cell culture without reagent was set as a negative control (NC), and the amount (ng/mL) of hyaluronic acid produced was determined by subtracting the amount of hyaluronic acid produced of the NC from the amount of hyaluronic acid produced of each compound with reagent.

Compound | Amount of hyaluronic acid produced obtained by subtracting NC (final concentration 1 mM) [ng/mL] | Measured value (amount of hyaluronic acid in the culture supernatant) (final concentration 1 mM) [ng/mL] | production capacity of hyaluronic acid with the NC taken as 100% (0.001 μM final concentration) [%] | production capacity of hyaluronic acid with the NC taken as 100% (0.01 μM final concentration) [%] | production capacity of hyaluronic acid with the NC taken as 100% (0.05 μM final concentration) [%] | production capacity of hyaluronic acid with the NC taken as 100% (0.1 μM final concentration) [%] | production capacity of hyaluronic acid with the NC taken as 100% (1 μM final concentration) [%] | promotion capacity of hyaluronic acid production (in words) (concentrations of 0.01 mM or less and of 1 mM) | promotion of hyaluronic acid production (in words) (any concentration tested (0.001 to 1 mM)) | promotion capacity of hyaluronic acid production (in words) (concentrations from 0.01 to 0.05 mM) | amount of hyaluronic acid produced compared with substances having similar chemical structures (in words) (final concentration 1 mM)
O=C(O)/C=C/c1ccc(O)cc1 [trans-p-coumaric Acid, Trans-p-coumaric acid, reference compound] | 275.4202 | 1217 |  |  |  |  |  |  |  |  | 
CCCCCCCCCCCCCCCCCCCC(=O)O [Arachidic acid, arachidic acid] |  |  | 111 | 122 | 102 | 107 | 127 | high promotion capacity of production |  |  | 
O=C1C[C@@H](c2ccc(O)cc2)Oc2cc(O)ccc21 [Liquiritigenin, liquiritigenin, reference compound] | 164.725 | 1106 |  |  |  |  |  |  |  |  | 
O=c1c(-c2ccc(O)cc2)coc2cc(O)ccc12 [Daidzein, daidzein, reference compound] | 0 | 891 |  |  |  |  |  |  |  |  | 
O=C(/C=C/c1ccc(O)cc1)c1ccc(O)cc1O [Isoliquiritigenin, isoliquiritigenin] | 562.7006 | 1504 |  | 142 | 138 |  | 127 |  | promotion of hyaluronic acid production was confirmed | remarkably high promotion capacity of production | the highest
